Broadly, the EC50 is the concentration giving half of the maximal effect. A lower EC50 goes with a more potent agent.

Among the data in patent publication US12421242B2, “Substituted tetrahydropyrrolo-pyridinone compounds and their use in treating medical conditions” (Karuna Therapeutics, Inc., priority 2022, dated 2025) are EC50 values, retold here.

Test [1] concerns the target T1, hM4 receptors (Homo sapiens, UniProt P08173).
T1 construct: expressed in transfected cells; host or cells: CHO cells
T1 sequence (P08173 1-479): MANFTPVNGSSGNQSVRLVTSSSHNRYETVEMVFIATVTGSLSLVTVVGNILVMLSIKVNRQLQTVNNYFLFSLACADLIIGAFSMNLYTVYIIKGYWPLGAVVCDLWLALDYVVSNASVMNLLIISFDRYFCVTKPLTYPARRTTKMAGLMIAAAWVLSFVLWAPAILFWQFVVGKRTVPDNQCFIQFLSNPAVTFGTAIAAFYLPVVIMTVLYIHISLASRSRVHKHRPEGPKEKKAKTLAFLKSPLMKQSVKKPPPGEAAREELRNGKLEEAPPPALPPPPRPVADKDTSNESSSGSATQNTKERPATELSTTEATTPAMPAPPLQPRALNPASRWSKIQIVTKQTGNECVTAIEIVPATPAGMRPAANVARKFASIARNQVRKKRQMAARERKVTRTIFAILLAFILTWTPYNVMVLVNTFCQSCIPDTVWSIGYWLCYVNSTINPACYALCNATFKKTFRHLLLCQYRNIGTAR
Kind of test: Human M4 PAM pERK assay. The format is cell-based. Conditions: PAM mode. On the procedure:
(§1) Chinese hamster ovary (CHO) cells expressing either hM4 or rM4 receptors were frozen in assay ready vials (5×10^6 cells/vial) after bulking-up in culture. The day before an assay, vial(s) were thawed and cells seeded in 384 well white proxiplates at 1000/well for hM4 cells and at 2000/well for rM4 cells, in 10 μL of growth media (Hams/F12 with glutamax and 10% FCS) and incubated overnight at 37° C./5% CO2.
(§2) On the following morning, the growth media was removed by ‘flicking out’ over a bin, patting the inverted plate onto tissue, and then replacing with 10 μL of wash media (Hams/F12 with glutamax and 8 mM HEPES, NB: serum free). Then, the wash media was removed in the same way and replaced with 8 μL/well of the serum free media. Plates were then re-incubated for a further 4 hours at 37° C./5% CO2.
(§3) Compounds for testing were solubilized to 10 mM in DMSO and compound addition plates, consisting of ten-point concentration response curves (CRC) in duplicate points (10 μM top concentration, […]), were prepared by acoustic dispensing and the compound management group.
(§4) After the 4-hour incubation in serum free media, a 4 μL aliquot of the 3× compound solution containing an EC20 of acetylcholine (10 nM final concentration) was added to the cell plate using a 384 well plate to plate transfer. Then, the plate lid was replaced, and the cells incubated for 5 mins at 37° C./5% CO2. Following this final incubation, all cellular processes were stopped by the addition of 4 μL/well of lysis and blocking buffer and plates were incubated for 30 minutes at RT on an orbital shaker (gentle setting). Then, a final addition of 4 μL/well of antibody detection mix, containing both the Europium-Cryptate (donor) and d2 (acceptor) tagged detection components, was added followed by a further 2-hour incubation at RT, and then the plate was read using a TR-FRET (time resolved fluorescence resonance energy transfer) based protocol.

Test [2] concerns the target T2, human M4 receptor (Homo sapiens, UniProt P08173).
T2 construct: expressed in transfected cells
T2 sequence (P08173 1-479): T1 sequence (P08173 1-479)
Kind of test: M4 GTPγS PAM assay. Type of test: biochemical. As to conditions: CHO-K1 membranes expressing human M4, with EC20 acetylcholine (40 nM). The method, then: The M4 GTPγS PAM method was used. Membranes were prepared for GTPgS binding assays from CHO-K1 cells stably expressing human M4 receptor. Briefly, cells were grown in 5-layer cell culture flasks. Cells were washed with 50 mL of PBS and then dissociated with 0.05% trypsin. Dissociated cells were then collected by centrifugation at 650×g for 8 minutes at 4° C. Pellets were washed again in PBS by centrifugation and resuspended in 30 mL of 20 mM HEPES, 10 mM EDTA, pH 7.4. After sitting on ice for 30 min, membranes were collected by centrifugation at 50000×g for 15′ at 4° C., resuspended in 30 mL of 20 mM HEPES, 0.1 mM EDTA, pH 7.4 and collected again by centrifugation. Pellets were then washed twice by centrifugation in 30 mL of 20 mM HEPES, pH 7.4, and stored at −80° C. until the day of the assay. On the day of the assay, pellets were thawed on ice and resuspended in 1 mL of 20 mM HEPES, pH 7.4, 10 mM MgCl2, 100 mM NaCl using dounce homogenization. Membrane protein concentration is determined by BCA protein assay (Promega, Madison, WI) according to Promega guidelines.
On the day of the assay, serial dilutions of test PAM compounds were brought up in assay buffer (20 mM HEPES, 10 mM MgCl2, 100 mM NaCl) at 4× final assay concentration. […] of membrane homogenates (containing […] of membrane protein) were prepared in assay buffer supplemented with GDP at 4× final assay concentration (final assay concentration of GDP is 5 uM for M2 and 0.1 uM for M4) and dispensed into 96 well polypropylene, U-bottom Greiner plates. […] of vehicle or test PAM compound at 4× of final assay concentration diluted in the assay buffer were added to membrane and plates are incubated for 10-15 minutes at room temperature with gentle shaking. Then, […] of EC20 acetylcholine in assay buffer at 4× final assay concentration was added to assay plates (EC20 final assay concentrations was 40 nM for human M4).
Plates were then incubated, with shaking, for an additional 10-15 minutes. 25 mL of 0.4 nM ^35S-GTP (Perkin Elmer, Waltham, MA) in assay buffer was added to assay mixtures. The binding reaction is left on the shaker for 1 hour at room temperature. Membranes in assay reactions were then transferred to GF/C filter plates (Unifilter, Perkin Elmer) and washed three times using a FilterMate Harvester (Perkin Elmer) with cold assay buffer containing no GDP. Filter plates were then dried at 40° C. overnight followed by the addition of […] of Beta Plate Scintillation liquid. Plates are top and bottom sealed before being read on TopCount scintillation counter (Perkin Elmer, Waltham, MA).

Test [3] concerns the target T3, rM4 receptors (Rattus norvegicus, UniProt P08485).
T3 construct: expressed in transfected cells; host or cells: CHO cells
T3 sequence (P08485 1-478): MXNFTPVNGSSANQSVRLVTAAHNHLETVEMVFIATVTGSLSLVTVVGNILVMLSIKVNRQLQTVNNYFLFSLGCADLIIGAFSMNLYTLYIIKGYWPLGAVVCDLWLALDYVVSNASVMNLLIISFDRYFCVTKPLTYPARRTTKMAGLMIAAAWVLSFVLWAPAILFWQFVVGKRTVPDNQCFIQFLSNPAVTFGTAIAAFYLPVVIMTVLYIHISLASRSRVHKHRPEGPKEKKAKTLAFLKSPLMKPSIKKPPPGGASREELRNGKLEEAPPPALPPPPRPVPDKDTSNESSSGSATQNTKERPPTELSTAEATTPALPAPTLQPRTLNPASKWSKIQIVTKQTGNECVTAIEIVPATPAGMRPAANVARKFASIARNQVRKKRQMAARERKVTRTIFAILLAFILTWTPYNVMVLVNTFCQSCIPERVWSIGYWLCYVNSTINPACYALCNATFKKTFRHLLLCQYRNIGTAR
Kind of test: Rat M4 PAM pERK assay. Type of test: cell-based. Conditions: PAM mode. On the procedure: as §1, §2, §3, §4

As for `COc1cc(=O)n(C)c2c1C(C)N(C(=O)c1cnn(C(F)(F)F)c1)C2` (single isomer, unassigned) [Compound I-81], the EC50 in test [1], in test [2] and in test [3] was over 2000 nM in each case.
For the molecule `COc1c2c(n(C)c(=O)c1C)CN(C(=O)c1cnn(C(F)(F)F)c1)C2C` (single isomer, unassigned) [Compound I-83], the EC50 in test [1] was under 100 nM; in test [2], 100 to 500 nM; in test [3], 500 to 2000 nM.
In the case of `COc1c2c(n(C)c(=O)c1C)CN(C(=O)c1cnn(C(F)(F)F)c1)C2C` (single isomer, unassigned) [Compound I-84], the concentration giving a half-maximal response (EC50) in test [1] was 500 to 2000 nM; in test [2], over 2000 nM; in test [3], over 2000 nM.
Take `Cc1cc(=O)n(C)c2c1C(C)N(C(=O)c1cnn(C(F)(F)F)c1)C2` (single isomer, unassigned) [Compound I-92, 1,4,5-Trimethyl-6-(1-(trifluoromethyl)-1H-pyrazole-4-carbonyl)-1,5,6,7-tetrahydro-2H-pyrrolo[3,4-b]pyridin-2-one]: the EC50 in test [1], in test [2] and in test [3] was over 2000 nM in each case.
Take `Cc1cc(=O)n(C)c2c1C(C)N(C(=O)c1cnc(C(F)(F)F)s1)C2` (single isomer, unassigned) [Compound I-94]: the EC50 in test [1], in test [2] and in test [3] was over 2000 nM each time.
Consider `Cc1cc(=O)n(C)c2c1C(C)N(C(=O)c1cnc(C(F)(F)F)s1)C2` (single isomer, unassigned) [Compound I-95], for which the concentration giving a half-maximal response (EC50) in test [1] is 100 to 500 nM; in test [2], 500 to 2000 nM; in test [3] it was over 2000 nM.
As to `Cc1cc(=O)n(C)c2c1C(C)N(C(=O)c1cnc(C3CC3)s1)C2` (single isomer, unassigned) [Compound I-96], the EC50 in test [1], in test [2] and in test [3] was over 2000 nM throughout.
For the molecule `Cc1cc(=O)n(C)c2c1C(C)N(C(=O)c1cnc(C3CC3)s1)C2` (single isomer, unassigned) [Compound I-97], the EC50 was 100 to 500 nM in test [1], over 2000 nM in test [2] and over 2000 nM in test [3].
For `Cc1cc(=O)n(C)c2c1C(C)N(C(=O)c1ccc3nc(C4CC4)sc3c1)C2` (single isomer, unassigned) [Compound I-98], the EC50 in test [1], in test [2] and in test [3] was over 2000 nM throughout.
Regarding `Cc1cc(=O)n(C)c2c1C(C)N(C(=O)c1ccc3nc(C4CC4)sc3c1)C2` (single isomer, unassigned) [Compound I-99], the EC50 in test [1] lay within 100 to 500 nM; in test [2] it was 500 to 2000 nM; in test [3] it was 500 to 2000 nM.
Regarding `Cc1cc(=O)n(C)c2c1C(C)N(C(=O)c1ccc3nc(C(F)(F)F)sc3c1)C2` (single isomer, unassigned) [Compound I-100], the EC50 in test [1], in test [2] and in test [3] was over 2000 nM throughout.
As for `Cc1c2c(n(C)c(=O)c1Cl)C(C)N(C(=O)c1cnn(C(F)(F)F)c1)C2` (single isomer, unassigned) [Compound I-108, 3-Chloro-1,4,7-trimethyl-6-(1-(trifluoromethyl)-1H-pyrazole-4-carbonyl)-1,5,6,7-tetrahydro-2H-pyrrolo[3,4-b]pyridin-2-one], the concentration giving a half-maximal response (EC50) in test [1] was 500 to 2000 nM; in test [2], over 2000 nM; in test [3], over 2000 nM.
Consider `Cc1c2c(n(C)c(=O)c1Cl)CN(C(=O)c1ccn(C)n1)C2` [Compound I-3], for which the concentration for a half-maximal effect (EC50) is 500 to 2000 nM in test [1], over 2000 nM in test [2] and over 2000 nM in test [3].
As for `Cc1c2c(n(C)c(=O)c1Cl)CN(C(=O)c1cc(C3CC3)on1)C2` [Compound I-6], the EC50 in test [1] was 100 to 500 nM; in test [2] it was over 2000 nM; in test [3] it was over 2000 nM.
As for `Cc1c2c(n(C)c(=O)c1Cl)CN(C(=O)c1cc(C(F)(F)F)on1)C2` [Compound I-8], the results for the EC50 in test [1], in test [2] and in test [3] were under 100 nM, over 2000 nM and over 2000 nM, respectively.
For the molecule `Cc1ncc(C(=O)N2Cc3c(C)c(Cl)c(=O)n(C)c3C2)s1` [Compound I-9], the concentration for a half-maximal effect (EC50) in test [1] was under 100 nM; in test [2], 500 to 2000 nM; in test [3] it was 500 to 2000 nM.
Take `Cc1nc(C(=O)N2Cc3c(C)c(Cl)c(=O)n(C)c3C2)co1` [Compound I-12]: the EC50 is 100 to 500 nM in test [1], over 2000 nM in test [2] and over 2000 nM in test [3].
With `Cc1c2c(n(C)c(=O)c1Cl)CN(C(=O)c1cn(C(C)C)cn1)C2` [Compound I-14], the EC50 in test [1] was 500 to 2000 nM; in test [2], over 2000 nM; in test [3], over 2000 nM.
As for `Cc1c2c(n(C)c(=O)c1Cl)CN(C(=O)c1cnn(C(F)F)c1)C2` [Compound I-17], the figures for the concentration giving a half-maximal response (EC50) in test [1], in test [2] and in test [3] were under 100 nM, over 2000 nM and 500 to 2000 nM, respectively.
With `Cc1c2c(n(C)c(=O)c1Cl)CN(C(=O)c1cnc(C)n1C)C2` [Compound I-18], the EC50 in test [1] was 500 to 2000 nM; in test [2] it was over 2000 nM; in test [3], over 2000 nM.
For the molecule `Cc1c2c(n(C)c(=O)c1Cl)CN(C(=O)c1cn(CC(C)C)cn1)C2` [Compound I-19], the EC50 in test [1] was 500 to 2000 nM; in test [2] it was over 2000 nM; in test [3], over 2000 nM.
With `Cc1c2c(n(C)c(=O)c1Cl)CN(C(=O)c1cnc(C3CC3)s1)C2` [Compound I-21], the concentration giving a half-maximal response (EC50) is under 100 nM in test [1], 100 to 500 nM in test [2] and 500 to 2000 nM in test [3].
